Measured values reported in patent US10189863B2, “5,6-dihydro-4H-benzo[b]thieno-[2,3-d]azepine derivatives” (PULMOCIDE LIMITED, priority 2014, dated 2019).
pIC50: −log10 of the molar value.

Legend:
[1] = Cell viability: resazurin assay; assay type: cell-based, human; conditions: human, HEp2 cells
Outline: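 Viability read-out: resazurin fluorescence (ex 545, em 590 nm) after 6 h, following 5-day compound incubation of HEp2 cells (37 °C, 5% CO2, 5% FBS, 0.5% DMSO final). Loss expressed as percentage of vehicle, negative if viability rose; CC50 derived from concentration-response curve where appropriate.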

[2] = tested on: RSV B Washington strain; experiment: Assessment of RSV induced CPE in HEp2 cells (RSV B Washington strain); assay type: cell-based; conditions: human respiratory syncytial virus, HEp2 cells; for pIC50: HEp-2, 144 h, 1 MOI, 6 days, read-out: RSV B CPE IC50; for inhibition at 1 µg/mL: Inhibition (%) at 1 μg/mL, read-out: RSV B CPE % Inhibition
Outline: (§1)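 HEp2 cells were infected at MOI 1 with RSV A2 or RSV B Washington, with compound added at the same time (0.5% DMSO final). Incubation was 5 days for A2 and 6 days for B, then viability was read by resazurin fluorescence (545/590 nm) after 6 h. IC50, IC75 and IC90 came from concentration-response curves.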

[3] = tested on: RSV A2 strain; experiment: Assessment of RSV induced CPE in HEp2 cells (RSV A2 strain); assay type: cell-based; conditions: human respiratory syncytial virus, HEp2 cells; for pIC50: HEp-2, 120 h, 1 MOI, 5 days, read-out: RSV A2 CPE IC50; for inhibition at 0.01 µg/mL / inhibition at 0.1 µg/mL: HEp-2; for inhibition at 0.01 µg/mL: Inhibition (%) at 0.01 μg/mL; for inhibition at 0.1 µg/mL: Inhibition (%) at 0.1 μg/mL, read-out: RSV A2 CPE % Inhibition
Outline: as §1

Compound | CC50 at 5 days [1] [nM] | pIC50 [2] | inhibition at 1 µg/mL ([2]; HEp-2) [%] | pIC50 [3] | inhibition at 0.01 µg/mL [3] [%] | inhibition at 0.1 µg/mL [3] [%] | inhibition at 0.1 µg/mL ([2]; HEp-2, Inhibition (%) at 0.1 μg/mL) [%]
COCCOc1cccc(F)c1NC(=O)c1cc2c(s1)-c1ccccc1N(C(=O)c1ccc(NC(=O)c3cc(C)cnc3N3CC4(CCOCC4)C3)cc1)CC2 [Example 55, N-(2-fluoro-6-(2-methoxyethoxy)phenyl)-6-(4-(5-methyl-2-(7-oxa-2-azaspiro[3.5]nonan-2-yl)nicotinamido)benzoyl)-5,6-dihydro-4H-benzo[b]thieno[2,3-d]azepine-2-carboxamide] | > 12900 | 7.79 | 100 | 9.82 | 100 | – | –
Cc1cnc(N2CC3(CCOCC3)C2)c(C(=O)Nc2ccc(C(=O)N3CCc4cc(C(=O)Nc5c(C)cccc5Cl)sc4-c4ccccc43)cc2)c1 [Example 56, N-(2-chloro-6-methylphenyl)-6-(4-(5-methyl-2-(7-oxa-2-azaspiro[3.5]nonan-2-yl)nicotinamido)benzoyl)-5,6-dihydro-4H-benzo[b]thieno[2,3-d]azepine-2-carboxamide] | > 13700 | 8.39 | 89 | 9.85 | – | 94 | –
Cc1cnc(N2CC3(CCOCC3)C2)c(C(=O)Nc2ccc(C(=O)N3CCc4cc(C(=O)Nc5c(Cl)cccc5Cl)sc4-c4ccccc43)cc2)c1 [Example 57, N-(2,6-dichlorophenyl)-6-(4-(5-methyl-2-(7-oxa-2-aza-spiro[3.5]nonan-2-yl)nicotinamido)benzoyl)-5,6-dihydro-4H-benzo[b]thieno[2,3-d]azepine-2-carboxamide] | > 13300 | 8.85 | 74 | 9.89 | – | 91 | –
Cc1cnc(N2CC3(CCOCC3)C2)c(C(=O)Nc2ccc(C(=O)N3CCc4cc(C(=O)Nc5c(C)cccc5CO)sc4-c4ccccc43)cc2)c1 [Example 58, N-(2-(hydroxymethyl)-6-methylphenyl)-6-(4-(5-methyl-2-(7-oxa-2-azaspiro[3.5]nonan-2-yl)nicotinamido)benzoyl)-5,6-dihydro-4H-benzo[b]thieno[2,3-d]azepine-2-carboxamide] | > 13700 | 8.07 | 100 | 9.49 | 100 | – | –
Cc1cnc(N2CC3(CCOCC3)C2)c(C(=O)Nc2ccc(C(=O)N3CCc4cc(C(=O)Nc5c(F)cc(F)cc5F)sc4-c4ccccc43)c(F)c2)c1 [Example 59, 6-(2-fluoro-4-(5-methyl-2-(7-oxa-2-azaspiro[3.5]nonan-2-yl)nicotinamido)benzoyl)-N-(2,4,6-trifluorophenyl)-5,6-di-hydro-4H-benzo[b]thieno[2,3-d]azepine-2-carboxamide] | > 13200 | 7.86 | 93 | 9.64 | – | 100 | –
CCc1cnc(N2CC3(CCOCC3)C2)c(C(=O)Nc2ccc(C(=O)N3CCc4cc(C(=O)Nc5c(C)cccc5F)sc4-c4ccccc43)cc2)c1 [Example 60, 6-(4-(5-ethyl-2-(7-oxa-2-azaspiro[3.5]nonan-2-yl)nicotinamido)benzoyl)-N-(2-fluoro-6-methylphenyl)-5,6-dihydro-4H-benzo[b]thieno[2,3-d]azepine-2-carboxamide] | > 13700 | 8.02 | 100 | 9.85 | – | 92 | –
CCc1cnc(N2CC3(CCOCC3)C2)c(C(=O)Nc2ccc(C(=O)N3CCc4cc(C(=O)Nc5c(F)cccc5Cl)sc4-c4ccccc43)cc2)c1 [Example 61, N-(2-chloro-6-fluorophenyl)-6-(4-(5-ethyl-2-(7-oxa-2-azaspiro[3.5]nonan-2-yl)nicotinamido)benzoyl)-5,6-dihydro-4H-benzo[b]thieno[2,3-d]azepine-2-carboxamide] | > 13300 | 8.39 | 100 | 9.89 | – | 97 | –
Cc1cnc(N2CC3(CCOCC3)C2)c(C(=O)Nc2ccc(C(=O)N3CCc4cc(C(=O)Nc5c(C)cccc5C#N)sc4-c4ccccc43)cc2)c1 [Example 62, N-(2-cyano-6-methylphenyl)-6-(4-(5-methyl-2-(7-oxa-2-azaspiro[3.5]nonan-2-yl)nicotinamido)benzoyl)-5,6-dihydro-4H-benzo[b]thieno[2,3-d]azepine-2-carboxamide] | > 13800 | 9.05 | 100 | 9.89 | 89 | – | –
Cc1cnc(N2CC3(CCOCC3)C2)c(C(=O)Nc2ccc(C(=O)N3CCc4cc(C(=O)Nc5c(F)cccc5C(F)(F)F)sc4-c4ccccc43)cc2)c1 [Example 63, N-(2-fluoro-6-(trifluoromethyl)phenyl)-6-(4-(5-methyl-2-(7-oxa-2-azaspiro[3.5]nonan-2-yl)nicotinamido)benzoyl)-5,6-dihydro-4H-benzo[b]thieno[2,3-d]azepine-2-carboxamide] | > 13000 | 8.80 | 100 | 10.24 | 95 | – | –
Cc1cnc(N2CC3(CCOCC3)C2)c(C(=O)Nc2ccc(C(=O)N3CCc4cc(C(=O)Nc5c(C)cccc5C)sc4-c4ccccc43)cc2)c1 [Example 64, N-(2,6-dimethylphenyl)-6-(4-(5-methyl-2-(7-oxa-2-aza-spiro[3.5]nonan-2-yl)nicotinamido)benzoyl)-5,6-dihydro-4H-benzo[b]thieno[2,3-d]azepine-2-carboxamide] | > 14000 | 8.96 | 100 | 9.60 | 100 | – | –
C#Cc1cnc(N2CC3(CCOCC3)C2)c(C(=O)Nc2ccc(C(=O)N3CCc4cc(C(=O)Nc5c(F)cccc5Cl)sc4-c4ccccc43)cc2)c1 [Example 66, N-(2-chloro-6-fluorophenyl)-6-(4-(5-ethynyl-2-(7-oxa-2-azaspiro[3.5]nonan-2-yl)nicotinamido)benzoyl)-5,6-dihydro-4H-benzo[b]thieno[2,3-d]azepine-2-carboxamide] | > 13400 | 8.32 | 95 | 9.82 | 95 | – | –
COCc1cnc(N2CC3(CCOCC3)C2)c(C(=O)Nc2ccc(C(=O)N3CCc4cc(C(=O)Nc5c(F)cccc5Cl)sc4-c4ccccc43)cc2)c1 [Example 67, N-(2-chloro-6-fluorophenyl)-6-(4-(5-(methoxymethyl)-2-(7-oxa-2-azaspiro[3.5]nonan-2-yl)nicotinamido)benzoyl)-5,6-dihydro-4H-benzo[b]thieno[2,3-d]azepine-2-carboxamide] | > 13100 | 8.19 | 100 | 9.77 | 100 | – | –
Cc1cccc(F)c1NC(=O)c1cc2c(s1)-c1ccccc1N(C(=O)c1ccc(NC(=O)c3cc(F)cnc3N3CC4(CCOCC4)C3)cc1)CC2 [Example 68, 6-(4-(5-fluoro-2-(7-oxa-2-azaspiro[3.5]nonan-2-yl)nicotinamido)benzoyl)-N-(2-fluoro-6-methylphenyl)-5,6-dihydro-4H-benzo[b]thieno[2,3-d]azepine-2-carboxamide] | > 13900 | 7.77 | 100 | 10.06 | 90 | – | –
Cc1cccc(F)c1NC(=O)c1cc2c(s1)-c1ccccc1N(C(=O)c1ccc(NC(=O)c3cc(Cl)cnc3N3CC4(CCOCC4)C3)cc1)CC2 [Example 69, 6-(4-(5-chloro-2-(7-oxa-2-azaspiro[3.5]nonan-2-yl)nicotinamido)benzoyl)-N-(2-fluoro-6-methylphenyl)-5,6-dihydro-4H-benzo[b]thieno[2,3-d]azepine-2-carboxamide] | > 13600 | 7.82 | 100 | 9.35 | 96 | – | –
[2H]c1c([2H])c(C(=O)N2CCc3cc(C(=O)Nc4c(C)cccc4F)sc3-c3ccccc32)c([2H])c([2H])c1NC(=O)c1cc(C)cnc1N1CC2(CCOCC2)C1 [Example 70] | > 13900 | 8.92 | 100 | 9.74 | 76 | – | –
COc1cnc(N2CC3(CCOCC3)C2)c(C(=O)Nc2ccc(C(=O)N3CCc4cc(C(=O)Nc5c(C)cccc5F)sc4-c4ccccc43)cc2)c1 [Example 71, N-(2-fluoro-6-methylphenyl)-6-(4-(5-methoxy-2-(7-oxa-2-azaspiro[3.5]nonan-2-yl)nicotinamido)benzoyl)-5,6-di-hydro-4H-benzo[b]thieno[2,3-d]azepine-2-carboxamide] | > 13700 | 7.81 | – | 9.21 | 100 | – | 100
O=C(Nc1c(F)cccc1F)c1cc2c(s1)-c1ccccc1N(C(=O)c1ccc(NC(=O)c3cc(C4CC4)cnc3N3CC4(CCOCC4)C3)cc1)CC2 [Example 72, 6-(4-(5-cyclopropyl-2-(7-oxa-2-azaspiro[3.5]nonan-2-yl)nicotinamido)benzoyl)-N-(2,6-difluorophenyl)-5,6-dihydro-4H-benzo[b]thieno[2,3-d]azepine-2-carboxamide] | > 13400 | 8.48 | 89 | 9.49 | 100 | – | –
